Source: ChEMBL document CHEMBL4622892, “New class of alkynyl glycoside analogues as tyrosinase inhibitors” (Bioorg Med Chem Lett, 2020)
Activity calls are given as the source filed them. The calls are words filed in the database; no cut-off is given here.

Assays:
Mushroom tyrosinase [1] = biological target: T1, Mushroom tyrosinase (Agaricus bisporus, UniProt O42713+Q00024+C7FF04+C7FF05)
Description: Inhibition of mushroom tyrosinase using L-tyrosine as substrate

Mushroom tyrosinase [2] = biological target: T1, Mushroom tyrosinase; remark: listed apart in the source
Description: Inhibition of mushroom tyrosinase using L-DOPA as substrate

Mushroom tyrosinase [3] = biological target: T1, Mushroom tyrosinase; assay: Non-competitive inhibition of mushroom tyrosinase using L-DOPA as substrate by Lineweaver-Burk blot analysis
[4] = biological target: T2, Mushroom tyrosinase (Agaricus bisporus) (UniProt O42713+Q00024+C7FF04+C7FF05); assay: Reversible inhibition of mushroom tyrosinase using L-DOPA as substrate by Lineweaver-Burk plot analysis
Mushroom tyrosinase [5] = biological target: T1, Mushroom tyrosinase; assay: Non-competitive inhibition of mushroom tyrosinase using L-tyrosine as substrate by Lineweaver-Burk blot analysis
[6] = biological target: T2, Mushroom tyrosinase (Agaricus bisporus); assay: Reversible inhibition of mushroom tyrosinase using L-tyrosine as substrate by Lineweaver-Burk plot analysis
[7] = biological target: T2, Mushroom tyrosinase (Agaricus bisporus); assay: […] inhibition of mushroom tyrosinase using L-tyrosine as substrate by Lineweaver-Burk blot analysis

SMILES | IC50 (Mushroom tyrosinase [1]) [µM] | IC50 (Mushroom tyrosinase [2]) [µM] | further results
CO[C@H]1O[C@H](COC(C)=O)[C@@H](OCc2ccccc2)[C@H](OCc2ccccc2)[C@H]1OCc1ccccc1 | > 500 | > 500 | 
C#CCO[C@H]1O[C@@H]2CO[C@@H](c3ccccc3)O[C@H]2[C@H](OCc2ccccc2)[C@H]1OCc1ccccc1 | > 500 | 431 | 
C#CCOC[C@H]1O[C@H](OC)[C@H](OCc2ccccc2)[C@@H](OCc2ccccc2)[C@@H]1OCc1ccccc1 | > 500 | > 500 | 
CC#CCOC1O[C@H](CO)[C@@H](OCc2ccccc2)[C@H](OCc2ccccc2)[C@H]1OCc1ccccc1 (some centres undefined) | > 500 | 80.4 | 
C#CCOC1O[C@H](COCc2ccccc2)[C@@H](OCc2ccccc2)[C@H](OCc2ccccc2)[C@H]1OCc1ccccc1 (some centres undefined) | 81.9 | > 500 | 
C#CCCOC1O[C@H](CO)[C@@H](OCc2ccccc2)[C@H](OCc2ccccc2)[C@H]1OCc1ccccc1 (some centres undefined) | > 500 | > 500 | 
C#CCCO[C@@H]1O[C@@H]2CO[C@@H](c3ccccc3)O[C@H]2[C@H](OCc2ccccc2)[C@H]1OCc1ccccc1 | > 500 | > 500 | 
CC#CCO[C@H]1O[C@@H]2CO[C@@H](c3ccccc3)O[C@H]2[C@H](OCc2ccccc2)[C@H]1OCc1ccccc1 | > 500 | > 500 | 
COC[C@H]1OC(OCc2ccccc2)[C@H](OCc2ccccc2)[C@@H](OCc2ccccc2)[C@@H]1OCc1ccccc1 (some centres undefined) | > 500 | 435 | 
C#CCCOC1O[C@@H]2CO[C@@H](c3ccccc3)O[C@H]2[C@H](O)[C@H]1O (some centres undefined) | 463 | 207 | 
CO[C@H]1O[C@H](COCc2ccccc2)[C@@H](OCc2ccccc2)[C@H](OCc2ccccc2)[C@H]1OCc1ccccc1 | 191 | > 500 | 
C#CCCOC1O[C@H](COCc2ccccc2)[C@@H](OCc2ccccc2)[C@H](OCc2ccccc2)[C@H]1OCc1ccccc1 (some centres undefined) | 150 | 34.3 | Ki (Mushroom tyrosinase [3]): 49 µM; inhibition [4]: Active
C#CCCOC1O[C@H](COC(C)=O)[C@@H](OCc2ccccc2)[C@H](OCc2ccccc2)[C@H]1OCc1ccccc1 (some centres undefined) | 268 | > 500 | 
C#CCOC1O[C@H](COCC#CC)[C@@H](OCc2ccccc2)[C@H](OCc2ccccc2)[C@H]1OCc1ccccc1 (some centres undefined) | > 500 | > 500 | 
COC[C@H]1O[C@H](OC)[C@H](OCc2ccccc2)[C@@H](OCc2ccccc2)[C@@H]1OCc1ccccc1 | > 500 | 494 | 
CC#CCO[C@@H]1O[C@@H]2CO[C@@H](c3ccccc3)O[C@H]2[C@H](OCc2ccccc2)[C@H]1OCc1ccccc1 | > 500 | > 500 | 
CC#CCOC1O[C@H](COC)[C@@H](OCc2ccccc2)[C@H](OCc2ccccc2)[C@H]1OCc1ccccc1 (some centres undefined) | 73.6 | 45.4 | Ki (Mushroom tyrosinase [3]): 52 µM; inhibition [4]: Active
CC#CCO[C@@H]1O[C@H](COCc2ccccc2)[C@@H](OCc2ccccc2)[C@H](OCc2ccccc2)[C@H]1OCc1ccccc1 | 179 | > 500 | 
C#CCOC1O[C@H](CO)[C@@H](OCc2ccccc2)[C@H](OCc2ccccc2)[C@H]1OCc1ccccc1 (some centres undefined) | > 500 | > 500 | 
C#CCOC[C@H]1OC(OCc2ccccc2)[C@H](OCc2ccccc2)[C@@H](OCc2ccccc2)[C@@H]1OCc1ccccc1 (some centres undefined) | 205 | > 500 | 
C#CCOC[C@H]1OC(OCC#C)[C@H](OCc2ccccc2)[C@@H](OCc2ccccc2)[C@@H]1OCc1ccccc1 (some centres undefined) | > 500 | > 500 | 
C#CCOC1O[C@H](COC)[C@@H](OCc2ccccc2)[C@H](OCc2ccccc2)[C@H]1OCc1ccccc1 (some centres undefined) | > 500 | > 500 | 
CC#CCO[C@H]1O[C@H](COCc2ccccc2)[C@@H](OCc2ccccc2)[C@H](OCc2ccccc2)[C@H]1OCc1ccccc1 | 321 | > 500 | 
C#CCCCOC1O[C@H](COC)[C@@H](OCc2ccccc2)[C@H](OCc2ccccc2)[C@H]1OCc1ccccc1 (some centres undefined) | > 500 | > 500 | 

SMILES | IC50 (Mushroom tyrosinase [1]) [µM] | IC50 (Mushroom tyrosinase [2]) [µM] | further results
OC[C@H]1OC(OCc2ccccc2)[C@H](OCc2ccccc2)[C@@H](OCc2ccccc2)[C@@H]1OCc1ccccc1 (some centres undefined) | > 500 | > 500 | 
C#CCOC1O[C@@H]2CO[C@@H](c3ccccc3)O[C@H]2[C@H](OCc2ccccc2)[C@H]1OCc1ccccc1 (some centres undefined) | > 500 | 383 | 
CC#CCOC1O[C@@H]2CO[C@@H](c3ccccc3)O[C@H]2[C@H](O)[C@H]1O (some centres undefined) | > 500 | > 500 | 
CC#CCOC[C@H]1OC(OCC#CC)[C@H](OCc2ccccc2)[C@@H](OCc2ccccc2)[C@@H]1OCc1ccccc1 (some centres undefined) | 72 | > 500 | Ki (Mushroom tyrosinase [5]): 32 µM; inhibition [6]: Active
CC#CCOC[C@H]1OC(OC)[C@H](OCc2ccccc2)[C@@H](OCc2ccccc2)[C@@H]1OCc1ccccc1 (some centres undefined) | 274 | > 500 | 
C#CCCOC1O[C@@H]2CO[C@@H](c3ccccc3)O[C@H]2[C@H](OCc2ccccc2)[C@H]1OCc1ccccc1 (some centres undefined) | > 500 | 257 | 
CC(=O)OC[C@H]1OC(OCc2ccccc2)[C@H](OCc2ccccc2)[C@@H](OCc2ccccc2)[C@@H]1OCc1ccccc1 (some centres undefined) | 273 | 357 | 
C#CCCO[C@H]1O[C@@H]2CO[C@@H](c3ccccc3)O[C@H]2[C@H](OCc2ccccc2)[C@H]1OCc1ccccc1 | > 500 | > 500 | 
c1ccc(COC[C@H]2OC(OCc3ccccc3)[C@H](OCc3ccccc3)[C@@H](OCc3ccccc3)[C@@H]2OCc2ccccc2)cc1 (some centres undefined) | > 500 | > 500 | 
C#CCO[C@H]1O[C@H](COCc2ccccc2)[C@@H](OCc2ccccc2)[C@H](OCc2ccccc2)[C@H]1OCc1ccccc1 | > 500 | > 500 | 
C#CCCCOC1O[C@H](COC(C)=O)[C@@H](OCc2ccccc2)[C@H](OCc2ccccc2)[C@H]1OCc1ccccc1 (some centres undefined) | 208 | > 500 | 
CC#CCOC[C@H]1OC(OCc2ccccc2)[C@H](OCc2ccccc2)[C@@H](OCc2ccccc2)[C@@H]1OCc1ccccc1 (some centres undefined) | > 500 | > 500 | 
C#CCO[C@@H]1O[C@H](COCc2ccccc2)[C@@H](OCc2ccccc2)[C@H](OCc2ccccc2)[C@H]1OCc1ccccc1 | 94.7 | > 500 | 
CC#CCOC1O[C@H](COCc2ccccc2)[C@@H](OCc2ccccc2)[C@H](OCc2ccccc2)[C@H]1OCc1ccccc1 (some centres undefined) | 54 | 70.7 | Ki (Mushroom tyrosinase [5]): 21 µM; inhibition [7]: Active
CC#CCOC1O[C@@H]2CO[C@@H](c3ccccc3)O[C@H]2[C@H](OCc2ccccc2)[C@H]1OCc1ccccc1 (some centres undefined) | > 500 | > 500 | 
C#CCOC[C@H]1OC(OCC#CC)[C@H](OCc2ccccc2)[C@@H](OCc2ccccc2)[C@@H]1OCc1ccccc1 (some centres undefined) | > 500 | 288 | 
C#CCCCOC1O[C@H](COCc2ccccc2)[C@@H](OCc2ccccc2)[C@H](OCc2ccccc2)[C@H]1OCc1ccccc1 (some centres undefined) | 105 | > 500 | 
CO[C@H]1O[C@H](CO)[C@@H](OCc2ccccc2)[C@H](OCc2ccccc2)[C@H]1OCc1ccccc1 | > 500 | > 500 | 
C#CCCCOC1O[C@H](CO)[C@@H](OCc2ccccc2)[C@H](OCc2ccccc2)[C@H]1OCc1ccccc1 (some centres undefined) | > 500 | > 500 | 
C#CCO[C@@H]1O[C@@H]2CO[C@@H](c3ccccc3)O[C@H]2[C@H](OCc2ccccc2)[C@H]1OCc1ccccc1 | > 500 | > 500 | 
C#CCCOC1O[C@H](COC)[C@@H](OCc2ccccc2)[C@H](OCc2ccccc2)[C@H]1OCc1ccccc1 (some centres undefined) | > 500 | > 500 | 
C#CCOC1O[C@@H]2CO[C@@H](c3ccccc3)O[C@H]2[C@H](O)[C@H]1O (some centres undefined) | > 500 | > 500 | 
C#CCOC1O[C@H](COC(C)=O)[C@@H](OCc2ccccc2)[C@H](OCc2ccccc2)[C@H]1OCc1ccccc1 (some centres undefined) | 461 | > 500 | 
CC#CCOC1O[C@H](COC(C)=O)[C@@H](OCc2ccccc2)[C@H](OCc2ccccc2)[C@H]1OCc1ccccc1 (some centres undefined) | 219 | 400 | 
